Test results reported in patent publication US20150024955A1, “Methods of Identifying Modulators of Dephosphorylation of Histone Deacetylase” (THE J. DAVID GLADSTONE INSTITUTES, priority 2006, published 2015).

Key:
[1] = test system: HDAC7 (Ser155, Ser318, Ser448 phosphorylation); test: HDAC7 phosphorylation by Western blot with antiphospho-HDAC7 antisera in DO11.10-HDAC7-Flag cells; type: cell-based, human
Experimental: DO11.10-HDAC7-Flag cells were untreated or treated with either PMA or anti CD3 antibody for the indicated times. Total cellular extracts were prepared in 20 mM Hepes (pH 7.5), 10 mM EGTA, 22.5 mM MgCl2, 1% NP-40, 2 mM orthovanadate, 1 mM dithiothreitol, and 0.5 mM phenyl-methyl sulfonyl fluoride supplemented with protease inhibitors, and subjected to Western blot analysis.
Antibodies against mouse HDAC7 phosphorylated at serine residues 178, 344 and 479 were generated (Sigma Genosys, INC., Houston Tex. 77216-1508, USA). Briefly, rabbits were immunized with KLH-conjugated peptides. The phosphopeptides used to generate the phosphor-specific antibodies were FPLRTV[pSer]EPNLKL for P-Ser178, RPLNRTR[pSer]EPLPPS for P-Ser344 and RPLSRTQ[pSer]SPAAPV for P-Ser479. [pSer] indicates the phosphate group on the conserved serine residues. HDAC7 phospho specific antibodies were purified from crude rabbit serum by double affinity purification with nonphosphorylated and phosphorylated peptide. The corresponding serine residues can be found in human HDAC7 at amino acid positions 155, 318, and 448, respectively.
Using these antisera, the state of phosphorylation of HDAC7 following PMA treatment was assessed. […] Phosphatase treatment of immunoprecipitated HDAC7 abolished the reactivity of the different phosphor-HDAC7 antibodies confirming their specificity for phosphorylated HDAC7 (FIG. 6A).
To test the possibility that HDAC7 became dephosphorylated by a phosphatase, cells were stimulated with PMA followed by the addition of okadaic acid, a phosphatase inhibitor, for the rest of the time course. Consistent with the hypothesis that HDAC7 is dephosphorylated by a phosphatase, okadaic acid treatment led to persistent phosphorylation of HDAC7 at each site up to 24 h (FIG. 6B).
To further probe the role of myosin phosphatase in the dephosphorylation of HDAC7 in vivo, small interfering RNAs (siRNAs) specific for PP1β and MYPT1 were introduced into DO11.10 cells expressing HDAC7. With an siRNA control (siCo), HDAC7 was transiently phosphorylated in response to PMA, with a peak at 2 h, and rapidly dephosphorylated thereafter (FIG. 11B, left panel). […] Further, HDAC7 remained phosphorylated up to 8 h after PMA stimulation (FIG. 11B, right panel).

HDAC7-GFP = HDAC7-GFP subcellular localization by immunofluorescence microscopy in DO11.10 cells; type: cell-based
Experimental: DO11.10 cells (5×10^6) were nucleofected with an HDAC7-GFP expression vector together with either siRNA control or siRNAs for PP1β and MYPT1. Cells ([…]) were seeded onto poly-L-lysine-coated coverslips 12 h after nucleofection and allowed to attach for 12 h. Cells were stimulated with 10 ng/ml PMA. HDAC7 was localized by immunofluorescence microscopy with a confocal fluorescence microscope (Olympus BX60, Bio-Rad).
To determine whether the changes in HDAC7 phosphorylation affected the subcellular localization of the protein, the fate of an HDAC7-GFP fusion protein in response to PMA was followed. […] The subcellular localization of HDAC7 also closely paralleled serine 155, serine 318, and serine 448 phosphorylation. While resting cells […] nuclear exclusion of HDAC7, more than 75% of activated cells excluded HDAC7 from the nucleus at 2 hours after stimulation (FIG. 7A). However, this exclusion was transient and HDAC7 progressively returned to the nucleus over the next few hours (FIGS. 7A, 7B). Significant reimport of HDAC7-GFP into the nucleus occurred at 4 h after PMA treatment, a time course that paralleled HDAC7 dephosphorylation (FIGS. 7A, 7B). […] Phosphatases have been predicted to regulate the nucleo-cytoplasmic shuttling of other class IIa HDAC, such as HDAC4, 5, and 9 for some time but have not been identified so far. […]

Nur77 = Nur77 expression by Western blot in DO11.10 cells; conditions: after PMA treatment
Experimental: SDS-PAGE and Western blot analysis were performed according to standard procedures. Western blots were developed with the ECL detection kit (Amersham Pharmacia Biotech, Piscataway, N.J.).

| Compound | HDAC7 phosphorylation at each serine after treatment ([1]; DO11.10 stably expressing HDAC7-Flag, Western blot of immunoprecipitated HDAC7) | start of progressive decrease in HDAC7 phosphorylation after treatment ([1]; all three serine residues, total HDAC7 content unchanged) | time of maximum (full) HDAC7 phosphorylation after stimulation ([1]; time course, DO11.10-HDAC7-Flag cells) | percentage of cells excluding HDAC7 from the nucleus (HDAC7-GFP; 2 hours after stimulation) | percentage of cells showing nuclear exclusion of HDAC7 (HDAC7-GFP; 24 hours after stimulation) | time of peak Nur77 induction (Nur77) | time up to which HDAC7 remained phosphorylated after PMA stimulation ([1]; agent applied together with PMA stimulation, DO11.10-HDAC7-Flag cells) |
| --- | --- | --- | --- | --- | --- | --- | --- |
| CCCCCCCCCCCCCC(=O)O[C@@H]1[C@@H](C)[C@@]2(O)[C@@H](C=C(CO)C[C@]3(O)C(=O)C(C)=C[C@@H]23)[C@@H]2C(C)(C)[C@]12OC(C)=O [PMA] | increased HDAC7 phosphorylation at each serine | 4 h | 1 to 2 h | more than 75% | < 20% | 2 h | – |
| C=C1[C@@H](O)[C@@H]2O[C@]3(CC[C@H](/C=C/[C@@H](C)[C@@H]4CC(C)=C[C@@]5(O[C@H](C[C@@](C)(O)C(=O)O)CC[C@H]5O)O4)O3)CC[C@H]2O[C@@H]1[C@@H](O)C[C@H](C)[C@H]1O[C@@]2(CCCCO2)CC[C@H]1C [okadaic acid] | – | – | – | – | – | – | up to 24 h |
